# Legend:
# [1] = test system: Cryptococcus neoformans; assay: Expected efficacy of antifungal agents; assay type: cell-based
# [2] = test system: Aspergillus niger; assay: Expected efficacy of antifungal agents; assay type: cell-based
# [3] = test system: Blastomyces dermatitidis; assay: Expected efficacy of antifungal agents; assay type: cell-based
# [4] = test system: Histoplasma capsulatum; assay type: cell-based; conditions: expected efficacy
# [5] = test system: Aspergillus terreus; assay: Expected efficacy of antifungal agents; assay type: cell-based
# [6] = test system: Paracoccidioides brasiliensis; assay: Expected efficacy of antifungal agents; assay type: cell-based
# [7] = test system: Aspergillus fumigatus; assay: Expected efficacy of antifungal agents; assay type: cell-based
# [8] = test system: Candida species; assay: Expected efficacy of antifungal agents; assay type: cell-based
# [9] = test system: Aspergillus flavus; assay: Expected efficacy of antifungal agents; assay type: cell-based
# [10] = test system: Leishmania infantum; assay: Expected efficacy of antifungal agents; assay type: cell-based
# [11] = test system: Coccidioides immitis; assay type: cell-based; conditions: expected efficacy
# [12] = test system: Leishmania donovani; assay: Expected efficacy of antifungal agents; assay type: cell-based
# [13] = test system: Shigella boydii; assay: Expected efficacy of antibiotic agents; assay type: cell-based; conditions: Gram: neg
# [14] = test system: Rickettsiae; assay type: cell-based; conditions: expected efficacy; Gram: neg
# [15] = test system: Klebsiella oxytoca; assay: Expected efficacy of antibiotic agents; assay type: cell-based; conditions: Gram: neg
# [16] = test system: Enterobacter cloacae; assay: Expected efficacy of antibiotic agents; assay type: cell-based; conditions: Gram: neg
# [17] = test system: Corynebacterium urealyticum; assay: Expected efficacy of antibiotic agents; assay type: cell-based; conditions: Gram: pos
# [18] = test system: Citrobacter diversus; assay: Expected efficacy of antibiotic agents; assay type: cell-based; conditions: Gram: neg
# [19] = test system: Bartonella bacilliformis; assay: Expected efficacy of antibiotic agents; assay type: cell-based; conditions: Gram: neg
# [20] = test system: Legionella pneumophila; assay type: cell-based; conditions: expected efficacy; Gram: neg
# [21] = test system: Francisella tularensis; assay type: cell-based; conditions: expected efficacy; Gram: neg
# [22] = test system: Pseudomonas aeruginosa; assay: Expected efficacy of antibiotic agents; assay type: cell-based; conditions: Gram: neg
# [23] = test system: Bordetella pertussis; assay: Expected efficacy of antibiotic agents; assay type: cell-based; conditions: Gram: neg
# [24] = test system: Shigella sonnei; assay: Expected efficacy of antibiotic agents; assay type: cell-based; conditions: Gram: neg
# [25] = test system: Streptococcus pyogenes; assay: Expected efficacy of antibiotic agents; assay type: cell-based; conditions: Gram: pos
# [26] = test system: Providencia rettgeri; assay: Expected efficacy of antibiotic agents; assay type: cell-based; conditions: Gram: neg
# [27] = test system: Methicillin resistant staph aureus (MRSA); assay: Expected efficacy of antibiotic agents; assay type: cell-based; conditions: Gram: pos
# [28] = test system: Morganella morganii; assay: Expected efficacy of antibiotic agents; assay type: cell-based; conditions: Gram: neg
# [29] = test system: Enterobacter aerogenes; assay: Expected efficacy of antibiotic agents; assay type: cell-based; conditions: Gram: neg
# [30] = test system: Klebsiella pneumoniae; assay: Expected efficacy of antibiotic agents; assay type: cell-based; conditions: Gram: neg
# [31] = test system: Acinetobacter lwoffii; assay: Expected efficacy of antibiotic agents; assay type: cell-based; conditions: Gram: neg
# [32] = test system: Moraxella catarrhalis; assay: Expected efficacy of antibiotic agents; assay type: cell-based; conditions: Gram: neg
# [33] = test system: Pseudomonas fluorescens; assay: Expected efficacy of antibiotic agents; assay type: cell-based; conditions: Gram: neg
# [34] = test system: gram-positive staphylococci and streptococci; conditions: general description, no test given; cited from earlier work
# [35] = test system: Corynebacterium jeikeium; assay: Expected efficacy of antibiotic agents; assay type: cell-based; conditions: Gram: pos
# [36] = test system: Citrobacter freundii; assay: Expected efficacy of antibiotic agents; assay type: cell-based; conditions: Gram: neg
# [37] = test system: Proteus mirabilis; assay: Expected efficacy of antibiotic agents; assay type: cell-based; conditions: Gram: neg
# [38] = test system: Shigella flexneri; assay: Expected efficacy of antibiotic agents; assay type: cell-based; conditions: Gram: neg
# [39] = test system: Neisseria meningitidis; assay: Expected efficacy of antibiotic agents; assay type: cell-based; conditions: Gram: neg
# [40] = test system: Acinetobacter baumannii; assay: Expected efficacy of antibiotic agents; assay type: cell-based; conditions: Gram: neg
# [41] = test system: Salmonella typhi; assay: Expected efficacy of antibiotic agents; assay type: cell-based; conditions: Gram: neg
# [42] = test system: Haemophilus influenzae; assay: Expected efficacy of antibiotic agents; assay type: cell-based; conditions: Gram: neg
# [43] = test system: Klebsiella (Calymmatobacterium) granulomatis; assay: Expected efficacy of antibiotic agents; assay type: cell-based; conditions: Gram: neg
# [44] = test system: Brucella species; assay type: cell-based; conditions: expected efficacy; Gram: neg
# [45] = test system: Enterobacter sakazakii; assay: Expected efficacy of antibiotic agents; assay type: cell-based; conditions: Gram: neg
# [46] = test system: Neisseria gonorrhoeae; assay: Expected efficacy of antibiotic agents; assay type: cell-based; conditions: Gram: neg
# [47] = test system: Escherichia coli; assay: Expected efficacy of antibiotic agents; assay type: cell-based; conditions: Gram: neg
# [48] = test system: Yersinia pestis; assay type: cell-based; conditions: expected efficacy; Gram: neg
# [49] = test system: Serratia marcescens; assay: Expected efficacy of antibiotic agents; assay type: cell-based; conditions: Gram: neg
# [50] = test system: Acinetobacter calcoaceticus; assay: Expected efficacy of antibiotic agents; assay type: cell-based; conditions: Gram: neg
# [51] = test system: Staphylococcus aureus (MSSA); assay: Expected efficacy of antibiotic agents; assay type: cell-based; conditions: Gram: pos
# [52] = test system: Providencia stuartii; assay: Expected efficacy of antibiotic agents; assay type: cell-based; conditions: Gram: neg
# [53] = test system: Clostridium perfringens; assay type: cell-based; conditions: expected efficacy; Gram: anaer
# [54] = test system: Proteus vulgaris; assay: Expected efficacy of antibiotic agents; assay type: cell-based; conditions: Gram: neg
# [55] = test system: Vibrio cholerae; assay: Expected efficacy of antibiotic agents; assay type: cell-based; conditions: Gram: neg
# [56] = test system: Campylobacter jejuni; assay: Expected efficacy of antibiotic agents; assay type: cell-based; conditions: Gram: neg
# [57] = test system: Haemophilus ducreyi; assay: Expected efficacy of antibiotic agents; assay type: cell-based; conditions: Gram: neg
# [58] = test system: Shigella dysenteriae; assay: Expected efficacy of antibiotic agents; assay type: cell-based; conditions: Gram: neg
# [59] = test system: Trichophyton mentagrophytes; assay: Expected efficacy of antifungal agents; assay type: cell-based
# [60] = test system: Histoplasma duboisii; assay type: cell-based; conditions: expected efficacy
# [61] = test system: Trichophyton rubrum; assay: Expected efficacy of antifungal agents; assay type: cell-based
# [62] = test system: Sporothrix schenckii; assay: Expected efficacy of antifungal agents; assay type: cell-based
# [63] = test system: Fusarium species; assay: Expected efficacy of antifungal agents; assay type: cell-based
# [64] = test system: Scedosporium apiospermum; assay: Expected efficacy of antifungal agents; assay type: cell-based
molecule,measurement,setting,value
C[C@@H]1[C@H](O)[C@@H](C)/C=C/C=C/C=C/C=C/C=C/C=C/C=C/[C@H](O[C@@H]2O[C@H](C)[C@@H](O)[C@H](N)[C@@H]2O)C[C@@H]2O[C@](O)(C[C@@H](O)C[C@@H](O)[C@H](O)CC[C@@H](O)C[C@@H](O)CC(=O)O[C@H]1C)C[C@H](O)[C@H]2C(=O)O [Amphotericin],efficacy against Cryptococcus neoformans,[1],yes
same,efficacy against Aspergillus niger,[2],yes
same,efficacy against Blastomyces dermatitidis,[3],yes
same,efficacy against Histoplasma capsulatum,[4],yes
same,efficacy against Aspergillus terreus,[5],yes
same,efficacy against Paracoccidioides brasiliensis,[6],yes
same,efficacy against Aspergillus fumigatus,[7],yes
same,efficacy against Candida species,[8],yes
same,efficacy against Aspergillus flavus,[9],yes
same,efficacy against Leishmania infantum,[10],yes
same,efficacy against Coccidioides immitis,[11],yes
same,efficacy against Leishmania donovani,[12],yes
"C/C(=C\C(=O)OCCCCCCCCC(=O)O)C[C@@H]1OC[C@H](C[C@@H]2O[C@H]2[C@@H](C)[C@H](C)O)[C@@H](O)[C@H]1O [Bactroban, Mupirocin]",efficacy against Shigella boydii,[13],no
same,efficacy against Rickettsiae,[14],no
same,efficacy against Klebsiella oxytoca,[15],no
same,efficacy against Enterobacter cloacae,[16],no
same,efficacy against Corynebacterium urealyticum,[17],no
same,efficacy against Citrobacter diversus,[18],no
same,efficacy against Bartonella bacilliformis,[19],no
same,efficacy against Legionella pneumophila,[20],no
same,efficacy against Francisella tularensis,[21],no
same,efficacy against Pseudomonas aeruginosa,[22],no
same,efficacy against Bordetella pertussis,[23],no
same,efficacy against Shigella sonnei,[24],no
same,efficacy against Streptococcus pyogenes,[25],yes
same,efficacy against Providencia rettgeri,[26],no
same,efficacy against Methicillin resistant staph aureus (MRSA),[27],yes
same,efficacy against Morganella morganii,[28],no
same,efficacy against Enterobacter aerogenes,[29],no
same,efficacy against Klebsiella pneumoniae,[30],no
same,efficacy against Acinetobacter lwoffii,[31],no
same,efficacy against Moraxella catarrhalis,[32],no
same,efficacy against Pseudomonas fluorescens,[33],no
same,activity against gram-positive staphylococci and streptococci,[34],excellent activity
same,efficacy against Corynebacterium jeikeium,[35],no
same,efficacy against Citrobacter freundii,[36],no
same,efficacy against Proteus mirabilis,[37],no
same,efficacy against Shigella flexneri,[38],no
same,efficacy against Neisseria meningitidis,[39],no
same,efficacy against Acinetobacter baumannii,[40],no
same,efficacy against Salmonella typhi,[41],no
same,efficacy against Haemophilus influenzae,[42],no
same,efficacy against Klebsiella (Calymmatobacterium) granulomatis,[43],no
same,efficacy against Brucella species,[44],no
same,efficacy against Enterobacter sakazakii,[45],no
same,efficacy against Neisseria gonorrhoeae,[46],no
same,efficacy against Escherichia coli,[47],no
same,efficacy against Yersinia pestis,[48],no
same,efficacy against Serratia marcescens,[49],no
same,efficacy against Acinetobacter calcoaceticus,[50],no
same,efficacy against Staphylococcus aureus (MSSA),[51],yes
same,efficacy against Providencia stuartii,[52],no
same,efficacy against Clostridium perfringens,[53],no
same,efficacy against Proteus vulgaris,[54],no
same,efficacy against Vibrio cholerae,[55],no
same,efficacy against Campylobacter jejuni,[56],no
same,efficacy against Haemophilus ducreyi,[57],no
same,efficacy against Shigella dysenteriae,[58],no
Itraconazole,efficacy against Trichophyton mentagrophytes,[59],yes
same,efficacy against Cryptococcus neoformans,[1],yes
same,efficacy against Blastomyces dermatitidis,[3],yes
same,efficacy against Paracoccidioides brasiliensis,[6],yes
same,efficacy against Aspergillus fumigatus,[7],yes
same,efficacy against Candida species,[8],yes
same,efficacy against Aspergillus flavus,[9],yes
same,efficacy against Histoplasma duboisii,[60],yes
same,efficacy against Trichophyton rubrum,[61],yes
same,efficacy against Coccidioides immitis,[11],yes
same,efficacy against Sporothrix schenckii,[62],yes
C[C@@H](c1ncncc1F)[C@](O)(Cn1cncn1)c1ccc(F)cc1F [Voriconazole],efficacy against Fusarium species,[63],yes
same,efficacy against Aspergillus niger,[2],yes
same,efficacy against Aspergillus terreus,[5],yes
same,efficacy against Aspergillus fumigatus,[7],yes
same,efficacy against Candida species,[8],yes
same,efficacy against Aspergillus flavus,[9],yes
same,efficacy against Scedosporium apiospermum,[64],yes

# Source: patent US9707229B2, “Compositions and methods for treating an infection” (CMPD LICENSING, LLC, priority 2015, dated 2017)
